From article PMC11062894, “Protein-based bandpass filters for controlling cellular signaling with chemical inputs” (Nature Chemical Biology, 2023)
Values joined by “and” are separate entries in the source; they are usually repeats but may differ in a detail not shown here. Equal entries are not always repeated.

Tested on: GEMS receptors with CBPA11 (BclXL–LD3 and BclXLhigh variants), STAT3-driven SEAP in HEK293T cells
Experiment: GEMS SEAP reporter assay, CBPA11 (BclXLhigh, LD3-v and BclXL-v variants) with A-1155463
Format: cell-based
Parameters: key to Raw data (SEAP) / SEAP, replicate values / Raw data of Figure 5b / Raw data Figure 5e / Raw data of Independent repeat of CBPA11-v1 vs CBPA11-v1-LD3v3 / Raw data of Independent repeat of CBPA11-v3 vs CBPA11-v3-LD3v3 / Raw data of Figure 5b, CBPA11-v1-LD3v3 (SEAP reporter raw value, single replicate) / Raw data of Figure 5b, CBPA11-v1 (SEAP reporter raw value, single replicate): SEAP activity in U/L in culture supernatant
Conditions: for SEAP (U/L): Figure 4d, representative data and independent repeats 1, 2 (triplicates); for Normalized data (SEAP) / Raw data (SEAP): SuppFigure 9a
Description: To rationally design a CBP responding to a chemical input, we used BclXL as the druglow receptor, LD3 as the designed binder and a designed BclXL variant as the drughigh receptor (referred to as BclXLhigh) to construct a CBP responsive to BclXL inhibitors (Fig. 4a). To design BclXLhigh, we used a multistate design computational protocol described elsewhere[26] […] Thus, BclXLhigh-v(1–3) were chosen as the functional drughigh receptors, resulting in three A-1155463-controlled CBPs (referred to as CBPA11-v(1–3)) (Fig. 4c–e).
HEK293T cells were seeded in a 96-well plate 24 h before transfection. The transfection mix in each well consisted of 3 ng of constitutive human CMV promoter driven mammalian STAT3 expression vector (PhCMV-STAT3-pA), 30 ng of STAT3-induced reporter expression (OStat3-PhCMVmin-SEAP-pA) and 50 ng of expression vectors for each GEMS receptor chain (PSV40-IgK-(drughigh receptor)-EpoRm-IL-6RBm-pA and PSV40-IgK-(druglow receptor-GGGGSX3-LD3)-EpoRm-IL-6RBm-pA). For the specific drughigh receptor and druglow receptor used in the different cellular assays, they are indicated as wild type or with mutations. Then, plasmid DNA was mixed with 50 μl opti-MEM (Thermo Fisher) and 600 ng of polyethyleneimine (Polysciences, catalog no. 24765-1). For drug treatment experiments, drugs were added 12 h post-transfection and incubated with cells for 24 h before the SEAP reporter detection assay.
SEAP activity (U l^−1) in cell culture supernatants was quantified by kinetic measurements at 405 nm (1 minute per measurement for 30 cycles) of absorbance increase due to phosphatase-mediated hydrolysis of para-nitrophenyl phosphate (pNPP).
Binding affinities of SPR drug competition assays were calculated using three-parameter nonlinear regression in GraphPad Prism (v.8.3.0). Representative data of cell assays are presented as individual values and mean values (bars). n = 3 refers to biological replicates. All IC50 or EC50 values of cell assays reported were calculated using four-parameter nonlinear regression ± s.d. Bandpass features of cutoff concentrations and Bandwidth90% were estimated based on the curve fitted using bell-shaped curve nonlinear regression in GraphPad Prism (v.8.3.0). […]
Supplementary Figure 4: Design, screening and validation of BclXLhigh variants. a) Screening of BclXLhigh variants in the GEMS platform. […]
Dissociation constant measurement of BclXLhigh-v(1-3) and LD3. Equilibrium curves are fitted using […]
BclXLhigh-v1 (purple), BclXLhigh-v2 (blue), […]
a) Bcl2high-based bandpass filter designs were developed and to respond to different concentrations of […]
corresponding inhibitor. c) Screening of Bcl2high-based bandpass filter variants in the GEMS platform.
The designed binder LD3 was fused to the druglow-receptor (PSV40-IgK-Bcl2-LD3-EpoRm-IL-6RBm-pA) in one EpoR chain and Bcl2high variants with the insensitive Bcl2 (iBcl2) as control in the other EpoR chain (PSV40-IgK-Bcl2high-EpoRm-IL-6RBm-pA). HEK293T cells were transfected with indicated […]
the mean of six biological replicates ± s.d., overlaid with a scatter dot plot of the original data points.
(1 picture or pasted object on this page, not shown here)
Supplementary Figure 6: Binding affinities and drug resistances of Bcl2high-v(2,4,5) assessed by […]
a) Measurement of dissociation constants for Bcl2high-v(2,4,5) and LD3 interactions. Equilibrium curves […]
Bcl2high-v(2,4,5) measured by SPR. 5 μM of Bcl2 or indicated variants were mixed with 10 μM of […]
Bcl2high-v2 (red), Bcl2high-v4
Supplementary Figure 7: Screening of LD3 variants in CBPA11-v(1-3) and raw data of CBPA11-v(1,3) with LD3-v3 variant. a-c) Screening of LD3 and LD3-v(1-3) variants in complex with BclXL for more sensitive CBPA11-v1 (a), CBPA11-v2 (b), CBPA11-v3 (c) in the GEMS platform. The LD3 variants replaced the role of LD3 (PSV40-IgK-BclXL-LD3-v(1-3)-EpoRm-IL-6RBm-pA) in one EpoR chain and BclXLhigh-v(1-3) in the other EpoR chain (PSV40-IgK-BclXLhigh-V(1-3)-EpoRm-IL-6RBm-pA). HEK293T cells were transfected with […]

[1] = CBPA11-v3-LD3v3, A-1155463 10000 nM

## CN(C)CC#Cc1ccc(OCCCc2sc(N3CCc4cccc(C(=O)Nc5nc6ccccc6s5)c4C3)nc2C(=O)O)c(F)c1 [A-1155463]
[1]
  Normalized data of Figure 5b: 13.381 and 8.285 and 13.0686
  Raw data of Figure 5b: 11.3652 and 7.762 and 13.9821
A-1155463 1 nM
  SEAP (U/L): 8.303 U/L and 10.1289 U/L and 7.12 U/L and 9.7586 U/L and 8.864 U/L and 9.857 U/L
A-1155463 3.16 nM
  SEAP (U/L): 6.744 U/L and 8.922 U/L and 8.703 U/L and 12.2331 U/L and 8.658 U/L and 8.903 U/L
BclXL-v1, A-1155463 1 nM
  Normalized data (SEAP): 9.876
  Raw data (SEAP): 9.508
BclXL-v1, A-1155463 3.16 nM
  Normalized data (SEAP): 8.253
  Raw data (SEAP): 7.946
BclXL-v1, A-1155463 100 nM
  Normalized data (SEAP): 78.5603
  Raw data (SEAP): 75.6338
BclXL-v1, A-1155463 316 nM
  Normalized data (SEAP): 100
  Raw data (SEAP): 96.2749
BclXL-v1, A-1155463 1000 nM
  Normalized data (SEAP): 71.1878
  Raw data (SEAP): 68.536
BclXL-v1, A-1155463 3160 nM
  Normalized data (SEAP): 30.3077
  Raw data (SEAP): 29.1787
BclXL-v1, A-1155463 10000 nM
  Normalized data (SEAP): 12.5367
  Raw data (SEAP): 12.0697
BclXL-v2, A-1155463 1 nM
  Normalized data (SEAP): 3.201
  Raw data (SEAP): 9.801
BclXL-v2, A-1155463 3.16 nM
  Normalized data (SEAP): 2.258
  Raw data (SEAP): 6.914
BclXL-v2, A-1155463 100 nM
  Normalized data (SEAP): 100
  Raw data (SEAP): 306.188
BclXL-v2, A-1155463 316 nM
  Normalized data (SEAP): 84.9937
  Raw data (SEAP): 260.24
BclXL-v2, A-1155463 1000 nM
  Normalized data (SEAP): 53.3071
  Raw data (SEAP): 163.22
BclXL-v2, A-1155463 3160 nM
  Normalized data (SEAP): 38.1484
  Raw data (SEAP): 116.806
BclXL-v2, A-1155463 10000 nM
  Normalized data (SEAP): 23.1544
  Raw data (SEAP): 70.8961
BclXL-v3, A-1155463 1 nM
  Normalized data (SEAP): 38.0177
  Raw data (SEAP): 3.662
BclXL-v3, A-1155463 3.16 nM
  Normalized data (SEAP): 36.4228
  Raw data (SEAP): 3.509
BclXL-v3, A-1155463 100 nM
  Normalized data (SEAP): 68.011
  Raw data (SEAP): 6.552
BclXL-v3, A-1155463 316 nM
  Normalized data (SEAP): 43.5621
  Raw data (SEAP): 4.196
BclXL-v3, A-1155463 1000 nM
  Normalized data (SEAP): 47.9459
  Raw data (SEAP): 4.619
BclXL-v3, A-1155463 3160 nM
  Normalized data (SEAP): 98.7391
  Raw data (SEAP): 9.512
BclXL-v3, A-1155463 10000 nM
  Normalized data (SEAP): 92.8941
  Raw data (SEAP): 8.949
BclXL, A-1155463 1 nM
  Normalized data (SEAP): 5.357
  Raw data (SEAP): 23.0325
